Here are results for 3 compounds from patent publication US20070212449A1, “Reduction of the titratable acidity and the prevention of tooth and other bone degeneration” (priority 2006, published 2007).

Molecules are shown by their SMILES.

One data set relates to MG-63 osteoblast cells. The data set is described as follows: MTT-based proliferation assay, osteoblast cells. It is filed as cell-based, human. The procedure: (§1) Human osteoblast MG-63 cells and HS-883 osteoclast cells were treated with IP6 in vitro and their abilities to proliferate and differentiate were evaluated by MTT-based cytotoxicity assay (for proliferation) and alkaline phosphatase (ALP) and matrixmetalloproteinase-2 (MMP-2), activity for differentiation of bone cells.
(§2) In an additional study, osteoblast MG-63 human osteosarcoma cells and osteoclast HS-883.T human bone giant sarcoma cells were cultured in Eagle's Minimum Essential Medium, in Eagle's Balanced Salt Solution with non-essential amino-acids and Dulbecco's Modified Eagles Medium, respectively. Both media were supplemented with 10% fetal bovine serum (FBS) and L-glutamine. Additionally, 1 mM of sodium pyruvate was added to culture media for MG-63 cells.
(§3) Stock solution of 100 mM Na-IP6 was prepared in distilled water, pH adjusted to 7.4, and diluted as needed in culture media.
(§4) Cell growth and proliferation were determined with the MTT-based cytotoxicity assay. Briefly, the MG-63 and HS-883.T cell lines were seeded into 96-well plates at a density 2000 cells per well. […] Cells were allowed to proliferate for 24 or 72 hours. 100 μL of MTT solution at concentration I mg/ml was added at the end of proliferation period to each well and allowed to incubate for 4 hours. The formazan product of MTT reduction was dissolved by adding 150 μL of DMSO. Immediately after, growth changes were evaluated by recording the reduction of MTT at 540 nm in a plate reader using data reduction software for measurement of optical density.

A short description of data set [1]: Effect of IP6 and inositol additions on % TA of soft drinks. Format: physicochemical. The procedure: Titratable (total) acidity measures the total or potential acidity and indicates the total number of acid molecules, whereas a pH measurement represents the hydrogen ion concentration. The titratable acidity (as % citric acid) is calculated by titrating the beverage against sodium hydroxide (NaOH) solution to pH 8.2 and using the following relationship: [formula] in accordance with the standard procedures for determining the titratable acidity of a variety of fluids, including milk.

Data set [2] can be described thus: Enamel dissolution (weight loss of enamel) in soft drinks with or without phytic acid. The conditions noted are these: for effect on enamel dissolution: addition of 1% phytic acid (FIG. 10). Set-up: species or system human. The procedure: For instance, studies were performed on sections of enamel removed from extracted human teeth as well as on extracted human teeth that were coated such that only the crown of the tooth (the enamel portion) was exposed to the beverage. […] These enamel specimens were immersed in the various soft drinks with or without additions of 0.5 and 1.0% by weight of dodecasodium salt of phytic acid (Inositol hexaphosphoric acid). The enamel dissolution was determined as the weight loss of the enamel at different time intervals in the untreated and treated beverages, as shown in FIGS. 7 and 8.

For a further data set, the system named is HS-883 osteoclast cells. In words: MTT-based proliferation assay, osteoclast cells. Format: cell-based, human. The procedure:
as §1, §2, §3, §4

Data set [3] relates to alkaline phosphatase (ALP). In words: ALP activity in osteoblast cells (differentiation marker). Conditions: MG-63 cells. Format: cell-based, human. The procedure:
(§5) Human osteoblast MG-63 cells and HS-883 osteoclast cells were treated with IP6 in vitro and their abilities to proliferate and differentiate were evaluated by MTT-based cytotoxicity assay (for proliferation) and alkaline phosphatase (ALP) and matrixmetalloproteinase-2 (MMP-2), activity for differentiation of bone cells. IP6 activates ALP and MMP-2 expression in osteoblast cells, indicating their better ability to lay new bone.
(§6) To study the osteoblast and osteoclast differentiation in the presence of IP6, the following markers were evaluated: alkaline phosphatase (ALP), matrix metalloproteinase-2 (MMP-2) and tartrate-resistant acid phosphatase (TRAP).
ALP activity was measured using a commercially available kit. Osteoblast cells were plated in tissue culture dishes in amount of 4×10^5 cells per plate. […] Incubation was stopped on ice; cells were washed twice with PBS and lysed with 0.25% of Triton X-100. 25 μL of lysate was mixed with 2.5 mL of ALP sample buffer, incubated for 4 or 24 hours in room temperature and absorption was read in a plate reader at λ405 nm.

The subject of data set [4] is matrix metalloproteinase-2 (MMP-2). In words: MMP-2 (gelatinase A) zymography, culture media of osteoblast cells. It is filed as cell-based, human. Conditions: for activity of gelatinase A in culture media: osteoblast cells. The procedure:
as §5, §6
(§7) To evaluate MMPs activity in culture medium zymography was performed. Cells were plated in tissue culture dishes, allowed to grow to 60 -70% confluence and then were treated with different concentrations of IP6 in serum free media. After 48 hours conditioned media was collected and immediately analyzed for matrix metalloproteinase activity. 10% Polyacrilamide gels were used to perform electrophoresis, following which gels were incubated in renaturating buffer for 30 minutes with gentle agitation. Incubation was continued in developing buffer overnight at 37° C. At the end of incubation time gels were stained with Comassie blue staining solution for 10 minutes, rinsed with destaining solution one (9.2% acetic acid, 45.4% methanol) and incubated with destaining solution two (10% acetic acid and 10% methanol) at room temperature as needed. Proteinase activity was measured using UN-SCAN-IT gel digitizing software for Windows and expressed as percentage according to the amount of determined Pixel average for each band.

For data set [5] the test system is unchanged. In words: MMP-2 zymography, culture media of osteoclast cells. It is filed as cell-based, human. Conditions: 100 and 300 μM of IP6. The procedure: as §6, §7

As to `C[C@]12CCC(=O)C=C1CC[C@@H]1[C@@H]2[C@@H](O)C[C@@]2(C)[C@H]1CC[C@]2(O)C(=O)CO` [Hydrocortisone, hydrocortisone, reference compound], the “reduction of the number of osteoblast cells” value in the data set on MG-63 osteoblast cells (10 μM hydrocortisone, p < 0.05) came out at 30.5%.

In the case of `O=P(O)(O)O[C@H]1[C@H](OP(=O)(O)O)[C@@H](OP(=O)(O)O)[C@H](OP(=O)(O)O)[C@@H](OP(=O)(O)O)[C@H]1OP(=O)(O)O` [IP6, inositol hexaphosphate], the “effect on titratable acidity” value in data set [1] (Fresca, 0.5% addition (FIG. 9)) is “reduction in titratable acidity”; in data set [1] (Mountain Dew, 1.0% addition (FIG. 9)) it was “reduction in titratable acidity”; in data set [1] (Sprite, 0.5% addition (FIG. 9)), “reduction in titratable acidity”. The “effect on enamel dissolution” value in data set [2] (5% lemon juice) and in data set [2] (Mountain Dew) was “reduction in enamel dissolution” throughout. Besides, the “effect on enamel erosivity” value in data set [2] (Mountain Dew beverage (FIG. 7)) and in data set [2] (Red Bull beverage (FIG. 8)) was “reducing enamel erosivity” each time. For the same compound, the “absorbance at 540 nm (MTT), mean ± SD” value in the data set on HS-883 osteoclast cells (300 μM Na-IP6 + 70 μM inositol with 10 μM hydrocortisone) is 0.45 ± 0.02; with HS-883 osteoclast cells (300 μM Na-IP6 + 70 μM inositol, no hydrocortisone (control 0.52 ± 0.01)), 0.34 ± 0.02. Also, the “proliferation of osteoclast cells” value in the data set on HS-883 osteoclast cells (in vitro IP6 treatment) is on record as “suppresses the proliferation”. For the same compound, the “absorbance at 540 nM (MTT), mean ± SD” value in the data set on MG-63 osteoblast cells (Na-IP6 50 μM + 70 μM inositol with 10 μM hydrocortisone) was 1.73 ± 0.03; with MG-63 osteoblast cells (Na-IP6 50 μM + 70 μM inositol, no hydrocortisone (control 1.54 ± 0.12)) it was 1.69 ± 0.09. Besides, the “effect on hydrocortisone suppression of osteoblast growth/proliferation” value in the data set with MG-63 osteoblast cells (with 10 μM hydrocortisone, 50-300 μM sodium salt of IP6 and 70 μM inositol) was “opposes the negative effect of hydrocortisone”. In addition, in data set [3], the “ALP activity/expression in osteoblast cells” value is on record as “activates”. For the same compound, the “MMP-2 expression in osteoblast cells” value in data set [4] (MG-63 cells) is listed as “activates”. Moreover, the “activity of gelatinase A in culture media” value in data set [4] (300 μM of IP6) is recorded as “Significant increase of activity”; in data set [4] (IP6 50 to 300 μM, 48 hours) it was “increased the activity of gelatinase A”. For the same compound, the “pro-MMP-2 and MMP-2 activity” value in data set [5] is given as “decrease”.

For `O=P([O-])([O-])O[C@H]1[C@H](OP(=O)([O-])O)[C@H](OP(=O)([O-])[O-])[C@H](OP(=O)([O-])O)[C@@H](OP(=O)([O-])[O-])[C@@H]1OP(=O)([O-])O.[Na+].[Na+].[Na+].[Na+].[Na+].[Na+].[Na+].[Na+].[Na+]` [Na-IP6, dodecasodium inositol hexaphosphate], the “% TA” value in data set [1] (Fresca, after addition of 0.5 g Ca-Mg IP6 + Inositol or 1 g Na-IP6 (beverage alone 0.46)) is 0.0%; in data set [1] (Red Bull, after addition of 0.5 g Ca-Mg IP6 + Inositol or 1 g Na-IP6 (beverage alone 1.04)), 0.22%.
